Each block holds one compound with its values, some of them ahead of it.
Experiment: solvent given as SMILES

emission maximum (in ClC(Cl)Cl): 690 nm
SMILES: c1ccc(N(c2ccccc2)c2ccc(-c3ccc(-c4ccc(-c5ccc(-c6ccc(N(c7ccccc7)c7ccccc7)cc6)s5)c5nsnc45)s3)cc2)cc1

emission maximum (in ClCCl): 435 nm
SMILES: COc1ccc(-c2cnc(/C=C/c3ccc(OC)c(OC)c3)o2)cc1

emission maximum (in ClCCl): 546 nm
SMILES: CCCCNc1ccc2n1[B-](F)(F)[N+]1=CC(/C=C/C(=O)OC(C)(C)C)=CC1=C2c1c(C)cc(C)cc1C

emission maximum (in ClCCl): 492 nm
SMILES: COc1ccc(C#Cc2c3ccccc3c(C#Cc3ccc(OC)cc3)c3ccccc23)cc1

emission maximum (in C1CCCCC1): 603 nm | emission maximum (in CCOC(C)=O): 602.5 nm | emission maximum (in CO): 603 nm
SMILES: CCCCCCOc1ccc2oc3c(c2c1)=CC1=C(c2ccccc2C)c2cc4c5cc(OCCCCCC)ccc5oc4n2[B-](F)(F)[N+]=31

emission maximum (in CN(C)C=O): 534 nm
SMILES: O=C1c2ccc3c4ccc5c6c(ccc(c7ccc(c2c37)C(=O)N1c1ccc(Cl)cc1)c64)C(=O)N(c1ccc(Cl)cc1)C5=O

emission maximum (in CCCCCC): 495 nm
SMILES: CCc1ccc2ccc(-c3ccccc3)nn12

SMILES: C(=C\c1ccc(N(c2ccc(/C=C/c3ccc(N(c4ccccc4)c4ccccc4)cc3)cc2)c2ccc(-c3nc4ccccc4nc3-c3ccc(N(c4ccc(/C=C/c5ccc(N(c6ccccc6)c6ccccc6)cc5)cc4)c4ccc(/C=C/c5ccc(N(c6ccccc6)c6ccccc6)cc5)cc4)cc3)cc2)cc1)/c1ccc(N(c2ccccc2)c2ccccc2)cc1
emission maximum (in C1CCOC1): 532 nm | emission maximum (in Cc1ccccc1): 521 nm

emission maximum (in ClC(Cl)Cl): 408 nm
SMILES: N#Cc1cc2ccc(C(F)(F)F)cc2c2c1ccc1ccccc12

SMILES: COc1ccc(-c2sc3c(-c4ccc(OC)cc4)c4n(c3c2-c2ccc(OC)cc2)[B-](F)(F)[N+]2=Cc3c(-c5ccc(OC)cc5)c5sc(-c6ccc(OC)cc6)c(-c6ccc(OC)cc6)c5n3[B-](F)(F)[N+]2=C4)cc1
emission maximum (in CC#N): 641 nm | emission maximum (in CCCCCC): 630 nm | emission maximum (in CN(C)C=O): 654 nm | emission maximum (in Cc1ccccc1): 649 nm | emission maximum (in ClCCl): 648 nm

SMILES: c1ccc(-c2nn(-c3ccccc3)c3nc4ccccc4cc23)cc1
emission maximum (in C1CCCCC1): 443.66 nm | emission maximum (in C1CCOC1): 467.73 nm | emission maximum (in CC#N): 478.01 nm | emission maximum (in CC(C)=O): 472.59 nm | emission maximum (in CCCCCl): 462.96 nm | emission maximum (in CCCCOCCCC): 454.96 nm | emission maximum (in CN(C)C=O): 476.64 nm

SMILES: N#Cc1c(C#N)c(-n2c3ccccc3c3ccccc32)c(-n2c3ccccc3c3ccccc32)c(-n2c3ccccc3c3ccccc32)c1-n1c2ccccc2c2ccccc21
emission maximum (in Cc1ccccc1): 525 nm

emission maximum (in CC#N): 459 nm | emission maximum (in CCO): 499 nm
SMILES: CC1(C)CC(=O)c2c(F)c(F)cc(F)c2N1

SMILES: N#Cc1c[nH]c2ccccc12
emission maximum (in C1CCOC1): 314 nm | emission maximum (in C1COCCO1): 305 nm | emission maximum (in CC#N): 313 nm | emission maximum (in CC(C)O): 315 nm | emission maximum (in CCO): 314 nm | emission maximum (in CO): 314 nm | emission maximum (in CS(C)=O): 316 nm | emission maximum (in O): 320 nm | emission maximum (in OCC(F)(F)F): 314 nm

emission maximum (in CC#N): 536.75 nm | emission maximum (in CCCCCC): 487.83 nm
SMILES: Cc1ccc2c(c1)C(=O)c1ccncc1-2

SMILES: c1ccc2c(-c3ccc(-c4nnc(-c5ccc(-c6nnc(-c7ccc(-c8cccc9ccccc89)s7)o6)cc5)o4)s3)cccc2c1
emission maximum (in C1COCCO1): 434 nm | emission maximum (in CC#N): 458 nm | emission maximum (in CC(=O)N(C)C): 462 nm | emission maximum (in CCCCCCCCCCO): 440 nm | emission maximum (in CCCCCCCCO): 442 nm | emission maximum (in CCCCCCO): 445 nm | emission maximum (in CCCCO): 451 nm | emission maximum (in CCO): 459 nm | emission maximum (in CS(C)=O): 468 nm | emission maximum (in Cc1ccccc1): 434 nm | emission maximum (in ClC(Cl)Cl): 410 nm

SMILES: Cc1cc(-c2nc(-c3ccccc3)nc(-c3ccccc3)n2)ccc1N1c2ccccc2C2(c3ccccc3-c3ccccc32)c2ccccc21
emission maximum (in Cc1ccccc1): 481 nm

emission maximum (in ClCCl): 620 nm
SMILES: COc1ccc(-c2c3cc4ccccc4cc3c(-c3ccc(OC)cc3)c3cc4ccccc4cc23)cc1

SMILES: c1ccc(-c2nc(-c3ccc(-c4ccc(N(c5ccccc5)c5ccccc5)cc4)cn3)oc2-c2ccccc2)cc1
emission maximum (in C1CCOC1): 458 nm | emission maximum (in C1COCCO1): 454 nm | emission maximum (in CC#N): 507 nm | emission maximum (in CC(C)=O): 495 nm | emission maximum (in CC(C)OC(C)C): 434 nm | emission maximum (in CCCCCC): 399 nm | emission maximum (in CCCCOCCCC): 431 nm | emission maximum (in CCN(CC)CC): 422 nm | emission maximum (in CCOC(C)=O): 456 nm | emission maximum (in CCOCC): 440 nm | emission maximum (in Cc1ccccc1): 435 nm | emission maximum (in c1ccccc1): 438 nm

SMILES: c1ccc(N(c2ccccc2)c2c3ccccc3cc3ccccc23)cc1
emission maximum (in Cc1ccccc1): 489 nm

SMILES: COc1cnc(-c2cc[n+](C3=C(F)C(F)(F)C(F)(F)[C-]3F)cc2)s1
emission maximum (in CC#N): 474 nm | emission maximum (in CC(C)=O): 474 nm | emission maximum (in CCO): 474 nm | emission maximum (in CN(C)C=O): 485 nm | emission maximum (in CO): 472 nm | emission maximum (in CS(C)=O): 490 nm | emission maximum (in ClC(Cl)Cl): 462 nm | emission maximum (in ClCCl): 466 nm

SMILES: CN(C)c1ccc(/C=C/c2nc3c4ccccc4c4ccccc4c3[nH]2)cc1
emission maximum (in C1CCOC1): 463 nm | emission maximum (in C1COCCO1): 436 nm | emission maximum (in CC1CCCCC1): 430 nm | emission maximum (in CC#N): 476 nm | emission maximum (in CCOC(C)=O): 460 nm | emission maximum (in CCOCC): 448 nm | emission maximum (in CN(C)C=O): 478 nm | emission maximum (in COC(C)=O): 471 nm | emission maximum (in CS(C)=O): 480 nm | emission maximum (in Cc1ccccc1): 436 nm | emission maximum (in ClC(Cl)Cl): 467 nm

emission maximum (in C1CCCCC1): 406 nm | emission maximum (in CC#N): 514 nm | emission maximum (in CO): 489 nm | emission maximum (in ClC(Cl)Cl): 479 nm
SMILES: CN(C)c1ccc(C#Cc2ccc(-c3nc(C#N)c(C#N)n3C)cc2)cc1

emission maximum (in ClCCl): 539 nm
SMILES: COCCOCCOCCOCC(COCCOCCOCCOC)Oc1cc(/C=C/c2ccc(/C=C(\C#N)c3ccccc3)cc2)c(OC(COCCOCCOCCOC)COCCOCCOCCOC)cc1/C=C/c1ccc(/C=C(\C#N)c2ccccc2)cc1

emission maximum (in CC#N): 599 nm
SMILES: CC1=C2C3=C(CCc4ccccc43)C(C)=[N+]2[B-](F)(F)n2c(C)c3c(c21)-c1ccccc1CC3

emission maximum (in C1CCCCC1): 536 nm | emission maximum (in CC#N): 638 nm | emission maximum (in CCO): 686 nm | emission maximum (in c1ccccc1): 570 nm
SMILES: CNc1cccc2c1-c1ccccc1C2=O

emission maximum (in ClCCl): 480 nm
SMILES: CCCc1ccc(C#Cc2ccc3nc4ccc(C#Cc5ccc(CCC)cc5)cn4c(=O)c3c2)cc1

emission maximum (in C1CCCCC1): 344 nm
SMILES: COC(=O)c1noc(-c2ccccc2)c1Cl

emission maximum (in CC#N): 409 nm | emission maximum (in CCCCCC): 337 nm
SMILES: Cc1ccc(-n2c(C)ccc2C)cc1

SMILES: CCCCCCCCOc1ccc2c3cccc4c(OCCCCCCCC)ccc(c5cccc1c52)c43
emission maximum (in C1CCOC1): 468.03 nm | emission maximum (in Cc1ccccc1): 467.99 nm | emission maximum (in ClC(Cl)(Cl)Cl): 471.01 nm | emission maximum (in ClC(Cl)Cl): 471.01 nm | emission maximum (in ClCCl): 469.99 nm | emission maximum (in c1ccncc1): 474.01 nm

SMILES: F[B-]1(F)Oc2ccccc2-c2cc(-n3c4ccc(-c5ccccc5)cc4c4cc(-c5ccccc5)ccc43)cc[n+]21
emission maximum (in Cc1ccccc1): 471 nm | emission maximum (in O=P(c1ccccc1)(c1ccccc1)c1ccccc1Oc1ccccc1P(=O)(c1ccccc1)c1ccccc1): 496 nm

emission maximum (in ClC(Cl)Cl): 475 nm
SMILES: CCN(CC)c1ccc2cc(-c3ccc(-c4ccc5ccc6c(-c7ccc(-c8cc9ccc(N(CC)CC)cc9oc8=O)cc7)ccc7ccc4c5c76)cc3)c(=O)oc2c1

emission maximum (in O): 432 nm
SMILES: O=C(O)CCCCCn1c2ccccc2c(=O)c2cc(F)ccc21

SMILES: CC1(C)c2ccccc2N(c2ccc(-c3cc(C#N)c(C#N)cc3-c3ccc(N4c5ccccc5C(C)(C)c5ccccc54)cc3)cc2)c2ccccc21
emission maximum (in Cc1ccccc1): 532 nm | emission maximum (in c1cc(-c2cccc(-n3c4ccccc4c4ccccc43)c2)cc(-n2c3ccccc3c3ccccc32)c1): 499 nm

emission maximum (in C1CCOC1): 403 nm
SMILES: c1ccc2c(c1)-c1ccccc1C21c2ccccc2-c2sc3c(c21)C1(c2ccccc2-c2ccccc21)c1ccccc1-3

— the Deep4Chem optical property database
